# Measured values from US20050209157A1, “Short bioactive peptides and methods for their use” (priority 2001, published 2005).
# Like-named read-outs stand apart in the source and are kept apart here. No end group written: not given here.
# Experiments:
# [1] = system: P. aeruginosa 27853; assay: Synergy between doxacycline and peptides, MBC; type: cell-based, Pseudomonas aeruginosa; conditions: for MBC, With doxacycline: doxacycline held at 10 ppm; for MBC, Without doxacycline: peptide alone
# From the text: Synergy between doxacycline and various peptides was investigated against P. aeruginosa 27853. The following table illustrates the beneficial effects of combining doxacycline and the peptides, where the numbers are the minimum bactericidal concentration (MBC; μg/mL). When combined with the peptides, the doxacycline was held at 10 ppm concentration.
# [2] = system: Escherichia coli 25922; assay: microbe, parasite or virus in culture
# From the text: Synergy between peptide Shiva-10 (SEQ ID NO:4) and various antimicrobial agents was investigated against Escherichia coli 25922.
# Synergy between tetracycline and various peptides was investigated against Escherichia coli 25922 MBC. […] When combined with the peptides, the concentration of tetracycline was held at 1.5 ppm.
# [3] = system: Staphylococcus aureus ATCC 6538; assay: Antimicrobial assay I, MIC by OD measurement; type: cell-based; conditions: 37° C. for 24 hours, absorbance 620 nm
# [4] = system: Pseudomonas aeruginosa ATCC 9027; assay: Antimicrobial assay I, MIC by OD measurement; type: cell-based; conditions: 37° C. for 24 hours, absorbance 620 nm
# [5] = system: WI38; conditions: MTT, 24 hours with peptide; normal fibroblast line
# [6] = in vitro; type: cell-based, human; conditions: human, human red blood cells, pH 7, hemolytic assay, concentration at 50% hemolysis, 1 hour at 37° C.; read-out: LD50
# [7] = system: S. pneumoniae C718; assay: Antimicrobial assays II, NCCLS broth microdilution MIC; type: cell-based, Streptococcus pneumoniae; conditions: mean of three
# [8] = system: BMKC; assay: Anti-cancer assay, MTT, LD50; type: cell-based; conditions: BMKC cloned melanoma line, 24 hours with peptide
# From the text: (§1) Numbers are LD50 values (μg/mL).
# [9] = system: MCF7; assay: Anti-cancer assay, MTT, LD50; type: cell-based; conditions: MCF7 breast adenocarcinoma line, MTT, 24 hours with peptide
# From the text: as §1
# [10] = system: HeLaS3; assay: Anti-cancer assay, MTT, LD50; type: cell-based; conditions: 24 hours with peptide, cervical carcinoma
# From the text: as §1
# [11] = system: laminin; assay: Laminin stimulation, ELISA on fibroblast cell lines; type: cell-based
# Description: (§2) Fibroblast cell lines were cultured under standard conditions and assayed for collagen and laminin using an ELISA system manufactured by Panvera (Madison, Wis.). Antibodies for collagen and laminin manufactured by Takara Shuzo Co., Ltd Japan. […] The other three peptides tested neither stimulated nor inhibited production (i.e. no effect was observed).
# [12] = system: S. pyogenes M76; assay: Antimicrobial assays II, NCCLS broth microdilution MIC; type: cell-based, Streptococcus pyogenes; conditions: mean of three; 16 to 20 hours at 35° C.
# [13] = system: yeast (Saccharomyces cerevisiae); assay: Antimicrobial assay I, yeast assay in RPMI 1640; type: cell-based; conditions: RPMI 1640 media
# [14] = system: S. pneumoniae C719; assay: Antimicrobial assays II, NCCLS broth microdilution MIC; type: cell-based, Streptococcus pneumoniae; conditions: mean of three, in µg/mL
# [15] = in vitro; conditions: human, WI38 normal lung fibroblast cells, LD50 WI38, WI38 normal lung fibroblast line, MTT, 24 hours with peptide
# [16] = system: S. aureus (MRSA); type: cell-based, Staphylococcus aureus; conditions: mean of three; 16 to 20 hours at 35° C.
# [17] = system: S. epidermidis C621; type: cell-based, Staphylococcus epidermidis; conditions: mean of three; 16 to 20 hours at 35° C.
# [18] = system: S. pyogenes ATCC19615; assay: Antimicrobial assays II, NCCLS broth microdilution MIC; type: cell-based, Streptococcus pyogenes; conditions: mean of three, in µg/mL
# [19] = system: collagen; assay: Collagen stimulation, ELISA on fibroblast cell lines; type: cell-based
# Description: as §2
# [20] = system: P. aeruginosa H774; type: cell-based, Pseudomonas aeruginosa; conditions: P. aeruginosa H744; nalidixic acid + peptide at ¼ MIC; 0.5 or less = synergy
# In short: (§3)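 Efflux-mutant strains were tested with two-fold serial dilutions of chloramphenicol or nalidixic acid, alone and with peptide held at ¼ of its own MIC.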
# [21] = system: P. aeruginosa; type: cell-based, Pseudomonas aeruginosa; conditions: P. aeruginosa H744; MIC of nalidixic acid with peptide at ¼ MIC
# In short: as §3
# [22] = system: P. aeruginosa H374; type: cell-based, Pseudomonas aeruginosa; conditions: for FIC Index: 0.5 or less = synergy
# In short: as §3
# [23] = system: tobramycin resistant (tr) Pseudomonas ATCC 13096; assay: Activity against drug resistant strains; type: cell-based
# Description: (§4) Peptides were assayed for their activity against tobramycin sensitive and resistant strains.
# [24] = system: clinical tobramycin resistant strain 960890198-3c; assay: Activity against drug resistant strains; type: cell-based
# Description: as §4
# [25] = system: tobramycin sensitive (ts) Pseudomonas ATCC 27853; assay: Activity against drug resistant strains; type: cell-based; conditions: tobramycin sensitive strain
# Description: as §4
# [26] = system: PC3; assay: Anti-cancer assay, MTT, LD50; type: cell-based; conditions: 24 hours with peptide, prostate adenocarcinoma
# From the text: as §1
# [27] = system: SW480; assay: Anti-cancer assay, MTT, LD50; type: cell-based; conditions: SW480 colon adenocarcinoma line, 24 hours with peptide
# From the text: as §1
# [28] = system: H1299; assay: Anti-cancer assay, MTT, LD50; type: cell-based; conditions: 24 hours with peptide, lung large cell carcinoma
# From the text: as §1
compound,measurement,setting,value
C[C@H]1c2cccc(O)c2C(O)=C2C(=O)[C@]3(O)C(O)=C(C(N)=O)C(=O)[C@@H](N(C)C)[C@@H]3[C@@H](O)[C@@H]21 [Doxacycline],MBC of doxacycline,"[1]; doxacycline itself, printed in column With doxacycline",100 µg/mL
CC(C)C[C@H](NC(=O)[C@H](C)NC(=O)[C@H](CC(C)C)NC(=O)[C@H](CCCCN)NC(=O)[C@H](C)NC(=O)[C@H](CC(C)C)NC(=O)[C@H](CCCCN)NC(=O)[C@H](CCCCN)NC(=O)[C@H](C)NC(=O)[C@H](CC(C)C)NC(=O)[C@H](CCCCN)NC(=O)[C@H](C)NC(=O)[C@H](CC(C)C)NC(=O)[C@H](CCCCN)NC(=O)[C@H](CCCCN)NC(=O)[C@H](C)NC(=O)[C@@H](N)Cc1ccccc1)C(N)=O [FLAK 26AM (P35; SEQ ID NO: 17)],"MBC, Without tetracycline",[2]; peptide alone,50 µg/mL
same,"MBC, With tetracycline",[2]; tetracycline held at […],20 µg/mL
same,"MBC, With doxacycline",[1],32 µg/mL
same,"MBC, Without doxacycline",[1],50 µg/mL
FAKLLALALKLKL-NH2 [P94],staph6538 (MIC),[3],10 µg/mL
same,paerug9027 (MIC),[4],> (> indicates greater than 200 μg/mL)
same,WI38 LD50,[5],6 µg/mL
same,HC50 at 1 h,[6],350 µg/mL
same,S. pneumoniae MIC,[7],64 µg/mL
same,LD50 BMKC,[8],11 µg/mL
same,LD50 MCF7,[9],65 µg/mL
same,HeLaS3 LD50,[10],> (> indicates greater than 1000)
same,Laminin stimulation,[11],0%
same,S. pyogenes M76 MIC,[12],8 µg/mL
same,yeast (MIC or MFC),[13],> (> indicates greater than 200 μg/mL)
same,S. pneumoniae MIC,[14],128
same,CC50 at 24 h,[15],6 µg/mL
same,S. aureus (MRSA) MIC,[16],16 µg/mL
same,S. epidermidis C621 MIC,[17],8 µg/mL
same,S. pyogenes MIC,[18],8
same,Collagen stimulation,[19],0%
FAKLLKLAAKKLL-NH2 [P56],staph6538 (MIC),[3],200 µg/mL
same,paerug9027 (MIC),[4],5 µg/mL
same,WI38 LD50,[5],250 µg/mL
same,FIC Index,[20],1.25
same,MIC Nal-comb.,[21],624 µg/mL
same,MIC Cm-comb.,[22]; MIC of chloramphenicol with peptide at ¼ MIC,16 µg/mL
same,MIC Nal-comb.,[22]; MIC of nalidixic acid with peptide at ¼ MIC,2500 µg/mL
same,FIC Index,[22]; chloramphenicol + peptide at ¼ MIC,1.25
same,FIC Index,"[22]; nalidixic acid + peptide at ¼ MIC, FIC=0.25+MIC comb/MIC alone",0.75
same,HC50 at 1 h,[6],600 µg/mL
same,activity against tobramycin resistant versus tobramycin sensitive Pseudomonas,[23]; ATCC 13096 (tr) compared with ATCC 27853 (ts),greater activity against tobramycin resistant (tr) Pseudomonas ATCC 13096 than against tobramycin sensitive (ts) Pseudomonas ATCC 27853
same,activity against tr Pseudomonas 13096,"[23]; tobramycin resistant strain, Table 46",16
same,activity against tr Pseudomonas 960890198-3c,"[24]; clinical tobramycin resistant strain, Table 47",>50
same,activity against clinical tobramycin resistant strain,[24]; strain 960890198-3c,greater activity against clinical tobramycin resistant strain 960890198-3c
same,activity against ts Pseudomonas 27853,[25]; Table 46,125
same,activity against ts Pseudomonas 27853,[25]; Table 47,125
same,LD50 BMKC,[8],205 µg/mL
same,PC3 LD50,[26],435 µg/mL
same,LD50 MCF7,[9],500 µg/mL
same,HeLaS3 LD50,[10],300 µg/mL
same,LD50 SW480,[27],215 µg/mL
same,H1299 LD50,[28],370 µg/mL
same,yeast (MIC or MFC),[13],50 µg/mL
same,CC50 at 24 h,[15],250 µg/mL
FALALKALKKL-NH2 [P165],staph6538 (MIC),[3],10 µg/mL
same,paerug9027 (MIC),[4],25 µg/mL
same,WI38 LD50,[5],470 µg/mL
same,HC50 at 1 h,[6],350 µg/mL
same,LD50 BMKC,[8],240 µg/mL
same,PC3 LD50,[26],340 µg/mL
same,LD50 MCF7,[9],360 µg/mL
same,HeLaS3 LD50,[10],400 µg/mL
same,LD50 SW480,[27],240 µg/mL
same,H1299 LD50,[28],56 µg/mL
same,Laminin stimulation,[11],0%
same,yeast (MIC or MFC),[13],25 µg/mL
same,CC50 at 24 h,[15],470 µg/mL
same,Collagen stimulation,[19],0%
MPKWKVFKKIEKVGRNIRNGIVKAGPAIAVLGEAKALG-OH [SB-37 (P5; SEQ ID NO: 3)],"MBC, With doxacycline",[1],30 µg/mL
same,"MBC, Without doxacycline",[1],200 µg/mL
TGFβ,Collagen stimulation,[19],60%
